In paper PMC8151276, “An Integrated Approach toward NanoBRET Tracers for Analysis of GPCR Ligand Engagement” (Molecules, 2021):

How the values were obtained:
CXCR3 = molecular target: T1, CXCR3 (Homo sapiens, UniProt P49682); test: NanoBRET screen HiBiT-CXCR3 in HEK293; assay type: binding; settings: CXCR3
T1 construct: purchased Promega (in-house HiBiT-GPCR construct library, NanoBRET)
T1 sequence (P49682 1-368): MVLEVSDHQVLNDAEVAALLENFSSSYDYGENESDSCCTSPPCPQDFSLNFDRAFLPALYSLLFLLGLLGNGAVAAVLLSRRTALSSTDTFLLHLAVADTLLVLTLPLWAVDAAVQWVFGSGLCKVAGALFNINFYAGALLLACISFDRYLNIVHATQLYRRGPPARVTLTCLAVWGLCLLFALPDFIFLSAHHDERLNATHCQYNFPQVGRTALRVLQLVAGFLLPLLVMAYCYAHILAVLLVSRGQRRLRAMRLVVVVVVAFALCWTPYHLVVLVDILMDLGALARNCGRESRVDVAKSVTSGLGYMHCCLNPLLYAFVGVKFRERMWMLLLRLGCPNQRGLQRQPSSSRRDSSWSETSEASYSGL
Experimental: (§1) Each tracer candidate was screened across the entire library of HiBiT-GPCR constructs using NanoBRET as the detection modality. As depicted in Figure 4A, the specificity of interactions was evaluated through decrease in BRET due to competitive displacement of a bound tracer by excess parental compound. Each tracer was analyzed for binding to each HiBiT-GPCR fusion in the absence and in the presence of competing parental compound. Briefly, HEK293 cells were transfected with HiBiT-GPCR constructs diluted into promoterless DNA to reduce expression and maximize translocation to the cell surface. Each tracer candidate was then screened at concentrations of 1 μM and 0.1 μM across cells expressing these fusions. Cells were treated for 1.5 h with tracer either alone or in the presence of 20 μM competing parental compound (i.e., control). BRET was measured upon addition of purified LgBiT and subsequent complementation with HiBiT genetically fused to a GPCR. The specificity of interactions was assessed through a decrease in BRET signal due to competitive displacement of the bound tracer. To further gauge the robustness of these interactions, the fold response over the control (i.e., BRETtracer/BRETcontrol) was calculated. We chose a 1.5-fold response, which translates to ≥7-fold signal over noise as the minimal threshold required to score an interaction as positive. […]. Below we highlight the screening results obtained for our exemplary fluorescent tracers based on Clozapine, Amitriptyline and AZD1283.
(§2) HiBiT-GPCR DNA constructs were diluted in 10 mM Tris pH 8 to a final concentration of 0.01 μg/μL, arrayed in 96-well plates and stored at −20 °C. For transfection, HEK293 cells were suspended in Opti-MEM (without phenol red) supplemented with 2% fetal bovine serum (Seradigm) and 100 units/mL penicillin–streptomycin (Gibco) at a final concentration of 220,000 cells/mL and dispensed into white 96-well plates at 90 μL/well. Subsequent transfections and screens were carried using an Agilent Bravo Automated Liquid Handling Platform. First, the 96-well HiBiT DNA arrays were diluted 25-fold in Opti-MEM (without serum or phenol red) to a final concentration of 0.0004 μg/μL and 20 μL of the diluted DNAs were transferred into new 96-well plates. Next, promoterless carrier DNA (1 μg/μL) was diluted 25-fold (0.04 μg/μL) and then dispensed into the diluted arrays at 20 μL/well. Following brief mixing, Viafect transfection reagent (Promega) diluted 16-fold into Opti-MEM was dispensed into the plates at 40 μL/well. After mixing by pipetting, plates were incubated for 10 min on the pipetting station deck. The DNA-transfection reagent complexes were then added to plates containing cells. To facilitate the screen, 10 μL of DNA-transfection reagent complexes were added in duplicates to the top 4 and bottom 4 rows, resulting in two identical 48-well arrays per plate. Plates with transfected cells were incubated for 18–20 h at 37 °C/5% CO2. A screen of each tracer across the entire library using two different concentrations requires duplicate plates of transfected cells. Depending on the number of tracers being screened, transfections can be scaled up using the same ratios. The next day, for each tracer, four 20× screening solutions in tracer dilution buffer (Promega) were prepared: two duplicates at final concentration of 20 μM and two duplicates at a final concentration of 2 μM. A competing unmodified compound was added to one of each duplicate at a final concentration of 400 μM. The four resulting solutions were diluted 4-fold in Opti-MEM without serum or phenol red to generate 5× solutions (5 µM and 0.5 µM tracer +/− 100 μM competing compound). To screen the library, a BioTek MultiFlo FX liquid dispenser was used to dispense 22.5 µL of tracer solution to the top 4 rows and 22.5 µL tracer + competing compound solution to the 4 bottom rows. Plates were briefly mixed on an orbital shaker and incubated for 1.5 h at room temperature. […]

AVPR1B = molecular target: T2, AVPR1B (Homo sapiens, UniProt P47901); test: NanoBRET screen HiBiT-AVPR1B in HEK293; assay type: binding; settings: AVPR1B
T2 construct: purchased Promega (in-house HiBiT-GPCR construct library, NanoBRET)
T2 sequence (P47901 1-424): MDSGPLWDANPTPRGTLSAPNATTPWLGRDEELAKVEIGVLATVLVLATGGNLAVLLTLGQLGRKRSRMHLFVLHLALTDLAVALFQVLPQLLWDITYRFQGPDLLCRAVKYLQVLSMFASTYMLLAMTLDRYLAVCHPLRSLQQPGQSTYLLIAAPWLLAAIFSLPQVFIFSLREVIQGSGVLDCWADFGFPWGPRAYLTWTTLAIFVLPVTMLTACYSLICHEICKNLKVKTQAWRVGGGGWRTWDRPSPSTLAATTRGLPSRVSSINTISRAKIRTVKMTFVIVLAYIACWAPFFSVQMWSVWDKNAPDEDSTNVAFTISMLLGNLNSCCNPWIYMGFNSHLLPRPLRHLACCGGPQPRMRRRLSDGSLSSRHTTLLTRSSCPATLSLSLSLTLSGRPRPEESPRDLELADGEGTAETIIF
Experimental: as §1, §2

| Structure (SMILES) | NanoBRET Fold Response (CXCR3; tracer 0.1μM) | NanoBRET Fold Response (CXCR3; tracer 1μM) | NanoBRET Fold Response (AVPR1B; tracer 0.1μM) | NanoBRET Fold Response (AVPR1B; tracer 1μM) |
| --- | --- | --- | --- | --- |
| CC(C)N(CC[C@H](c1ccccc1)c1cc(CCNC(=O)CCOCCOCCOCCOCCNC(=O)CCc2ccc3n2[B-](F)(F)[N+]2=C(c4ccc[nH]4)C=CC2=C3)ccc1O)C(C)C [Tolterodine-2-NB590] | 1.87 | 1.01 | 1.42 | 0.97 |
| CC(C)N(CC[C@H](c1ccccc1)c1cc(CCNC(=O)c2ccc(CNC(=O)CCc3ccc4n3[B-](F)(F)[N+]3=C(c5ccc[nH]5)C=CC3=C4)cc2)ccc1O)C(C)C [Tolterodine-BZ-NB590] | 1.11 | 0.96 | 0.85 | 0.94 |
| CCCn1c(=O)c2[nH]c(-c3ccc(OCC(=O)NCCNC(=O)CCOCCNC(=O)c4ccc(CNC(=O)CCc5ccc6n5[B-](F)(F)[N+]5=C(c7ccc[nH]7)C=CC5=C6)cc4)cc3)nc2n(CCC)c1=O [XAC-3-NB590] | 0.93 | 1.60 | 0.90 | 1.21 |
